{"source": "patent US20090259275A1", "about": "“METHODS OF TREATING BRAIN DAMAGES” (priority 2008, published 2009)", "key": {"[1]": {"biological_target": "T1, NMDAR association with TIAM1 (Rattus norvegicus, UniProt Q00960)", "T1 construct": "from tissue; host or cells: rat (Wistar) E17-18 lateral ganglionic eminence explant cultures", "T1 sequence (Q00960 27-1482, other chains not shown)": "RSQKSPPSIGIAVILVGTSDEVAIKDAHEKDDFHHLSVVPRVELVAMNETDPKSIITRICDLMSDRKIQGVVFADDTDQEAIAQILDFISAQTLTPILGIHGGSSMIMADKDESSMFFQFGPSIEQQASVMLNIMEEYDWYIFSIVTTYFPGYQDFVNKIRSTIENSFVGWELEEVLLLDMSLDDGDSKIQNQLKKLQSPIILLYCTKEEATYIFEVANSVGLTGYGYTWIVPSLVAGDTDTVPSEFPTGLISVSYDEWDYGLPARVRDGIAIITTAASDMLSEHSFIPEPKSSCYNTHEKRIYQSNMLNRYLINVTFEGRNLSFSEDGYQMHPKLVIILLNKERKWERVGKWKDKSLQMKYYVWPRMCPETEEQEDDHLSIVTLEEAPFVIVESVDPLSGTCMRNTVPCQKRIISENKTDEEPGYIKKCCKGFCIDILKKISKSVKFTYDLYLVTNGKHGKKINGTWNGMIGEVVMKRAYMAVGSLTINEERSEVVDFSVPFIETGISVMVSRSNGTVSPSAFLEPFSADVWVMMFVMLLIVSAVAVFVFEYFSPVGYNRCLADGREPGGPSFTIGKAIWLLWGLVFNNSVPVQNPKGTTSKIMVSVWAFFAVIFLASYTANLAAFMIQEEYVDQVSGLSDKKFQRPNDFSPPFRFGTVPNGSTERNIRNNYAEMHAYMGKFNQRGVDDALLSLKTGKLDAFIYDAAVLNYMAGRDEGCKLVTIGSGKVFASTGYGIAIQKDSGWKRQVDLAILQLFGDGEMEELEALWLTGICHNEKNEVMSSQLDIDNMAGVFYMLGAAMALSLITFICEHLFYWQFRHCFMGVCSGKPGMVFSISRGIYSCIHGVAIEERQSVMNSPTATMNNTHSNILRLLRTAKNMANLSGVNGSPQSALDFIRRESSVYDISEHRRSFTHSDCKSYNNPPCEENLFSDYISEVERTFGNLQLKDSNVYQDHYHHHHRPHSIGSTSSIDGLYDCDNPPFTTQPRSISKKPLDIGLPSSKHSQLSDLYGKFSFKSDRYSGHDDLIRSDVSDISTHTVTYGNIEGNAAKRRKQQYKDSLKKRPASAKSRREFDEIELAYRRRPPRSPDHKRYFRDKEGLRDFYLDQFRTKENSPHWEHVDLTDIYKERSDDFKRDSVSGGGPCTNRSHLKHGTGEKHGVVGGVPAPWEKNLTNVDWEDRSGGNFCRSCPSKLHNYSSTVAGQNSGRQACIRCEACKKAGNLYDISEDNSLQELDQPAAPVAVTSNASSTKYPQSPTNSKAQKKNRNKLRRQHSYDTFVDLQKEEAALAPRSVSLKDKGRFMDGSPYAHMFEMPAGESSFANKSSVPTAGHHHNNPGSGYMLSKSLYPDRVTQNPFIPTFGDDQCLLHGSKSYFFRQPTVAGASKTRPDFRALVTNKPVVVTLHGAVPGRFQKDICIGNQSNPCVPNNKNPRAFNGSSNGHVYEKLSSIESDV", "experiment": "Coimmunoprecipitation of NMDAR (NR2B) with TIAM1 in EF-exposed LGE explants", "type": "cell-based", "settings": "DAPV 10 μM, EF 250 mV/mm for 60 minutes", "excerpt": "The methods for immunocytochemistry and coimmunoprecipitation have been described in detail in Ning et al., “Dual neuroprotective signaling mediated by downregulating two distinct phosphatase activities of PTEN,” J. Neurosci., 24, 4052-60, (2004); and Liu et al., “Ischemic insults direct glutamate receptor subunit 2-lacking AMPA receptors to synaptic sites,” J. Neurosci., 26, 5309-19 (2006), both of which are incorporated herein by reference. For immunocytochemical labeling, the guinea-pig anti-DCX (obtained from Santa Cruz Biotechnology, Santa Cruz, Calif.), mouse anti-nestin (obtained from Chemicon, Billerica, Mass.), rabbit anti-NR1 (obtained from Chemicon), and rabbit anti-NR2B (obtained from Novas Biologicals, Littleton, Colo.) primary antibodies were used. Secondary antibodies consisted of Alex Fluor 488 and 596 were purchased from Molecular Probes, Eugene, Oreg. Imaging was performed with a Zeiss LSM 510 META confocal microscope and image processing was performed with Image J software (obtained from NIH). For coimmunoprecipitation assay, rabbit anti-TIAM1 (obtained from Santa Cruz), rabbit anti-NR2B (obtained from Novus Biologicals), rabbit anti-phosphorylated PAK1 at serine 423 (obtained from Santa Cruz) and mouse anti-actin (obtained from Chemicon) were used.\nRearrangement of the actin cytoskeletal network is an essential process in neural migration. […]"}, "PAK1 phosphorylation": {"system": "PAK1 phosphorylation", "experiment": "Immunoblot of PAK1 phosphorylation (serine 423) in EF-exposed explants", "type": "cell-based, rat", "settings": "DAPV; EF 250 mV/mm for 60 min", "excerpt": "(§1) The methods for immunocytochemistry and coimmunoprecipitation have been described in detail in Ning et al., “Dual neuroprotective signaling mediated by downregulating two distinct phosphatase activities of PTEN,” J. Neurosci., 24, 4052-60, (2004); and Liu et al., “Ischemic insults direct glutamate receptor subunit 2-lacking AMPA receptors to synaptic sites,” J. Neurosci., 26, 5309-19 (2006), both of which are incorporated herein by reference. For immunocytochemical labeling, the guinea-pig anti-DCX (obtained from Santa Cruz Biotechnology, Santa Cruz, Calif.), mouse anti-nestin (obtained from Chemicon, Billerica, Mass.), rabbit anti-NR1 (obtained from Chemicon), and rabbit anti-NR2B (obtained from Novas Biologicals, Littleton, Colo.) primary antibodies were used. Secondary antibodies consisted of Alex Fluor 488 and 596 were purchased from Molecular Probes, Eugene, Oreg. Imaging was performed with a Zeiss LSM 510 META confocal microscope and image processing was performed with Image J software (obtained from NIH). For coimmunoprecipitation assay, rabbit anti-TIAM1 (obtained from Santa Cruz), rabbit anti-NR2B (obtained from Novus Biologicals), rabbit anti-phosphorylated PAK1 at serine 423 (obtained from Santa Cruz) and mouse anti-actin (obtained from Chemicon) were used. […]"}, "[2]": {"system": "NSPC migration toward cathode", "experiment": "EF-directed NSPC migration in LGE explant cultures", "type": "cell-based, rat", "settings": "DAPV 10 μM, EF 30 mV/mm for 10 hours", "protocol": "Explants (100-300 μm in diameter) were selected for observation. For the electric field (EF) application, agar-salt bridges were used to connect silver/silver chloride electrodes in beakers containing Steinberg's solution to pools of excess culture medium at either side of the chamber. The electric field strengths were measured directly at the beginning and end of the observation period. For time-lapse observation, HEPES acid (25 mM) was added to the culture medium to adjust pH to 7.4. Time-lapse imaging was performed with an inverted microscope (Zeiss Axiovert 200M, obtained from Zeiss, Oberkochen, Germany) that was used to record digitally the migration of NSPCs for 3 hours. […] At the end of exposure period explants were fixed in 4% paraformaldehyde and then digitally photographed for quantification. […] To quantify velocity and directedness of cell motion, the cell centroid was calculated with Image J software (obtained from NIH). […] The directedness of motion was expressed as a function of cosine. It was calculated by defining movements in the X-plane towards the cathode (or mock-cathode) as negative. […] For quantification of long-term EF-exposed cells, the symmetry was expressed as a function of the distribution of cells around the explant. Total cell numbers in the cathode and anode facing quadrants were calculated. […]"}, "[3]": {"system": "association between actin and TIAM1", "experiment": "Coimmunoprecipitation of actin with TIAM1 in EF-exposed explants", "type": "cell-based, rat", "settings": "DAPV", "excerpt": "as §1"}, "[4]": {"system": "association of p-PAK1 with TIAM1", "experiment": "Coimmunoprecipitation of p-PAK1 with TIAM1 in EF-exposed LGE explants", "type": "cell-based, rat", "settings": "DAPV", "excerpt": "as §1"}}, "note": "“Also recorded” adds a separate entry of the source."}
{"compound": "N[C@H](CCCP(=O)(O)O)C(=O)O", "note": "[DAPV]", "values": [{"measurement": "EF-induced increase of NMDAR (NR2B) association with TIAM1", "setting": "[1]", "result": "inhibited; also recorded: suppressed"}, {"measurement": "EF-mediated increase of PAK1 phosphorylation", "setting": "PAK1 phosphorylation", "result": "significantly attenuated; also recorded: blocked"}, {"measurement": "NSPC migration toward cathode on the cathode side of explants", "setting": "[2]", "result": "significantly inhibited; also recorded: significantly attenuated"}, {"measurement": "EF-induced increase of association between actin and TIAM1", "setting": "[3]", "result": "suppressed; also recorded: inhibited"}, {"measurement": "EF-enhanced association of p-PAK1 with TIAM1", "setting": "[4]", "result": "abolished"}]}
